Two molecules from US20220054411A1, “MULTIPLE CONCENTRATE FORMULATION FOR MEDICAL PRODUCTS” (priority 2020, published 2022) can be followed below.

Common to all, as to type: cell-based
The test system of assay [1] is Staphylococcus epidermidis. The assay can be described thus: Minimal Inhibitory Concentration against Staphylococcus epidermidis. Conditions: at 24 hours.
Another assay concerns Pseudomonas Aeruginosa. The assay is described as follows: Minimal Inhibitory Concentration against Pseudomonas Aeruginosa.
The test system of a further assay is Staphylococcus Aureus. The assay is described as follows: Minimal Inhibitory Concentration against Staphylococcus Aureus.
A further assay has as its system Escherichia coli. The assay can be described thus: Minimal Inhibitory Concentration against Escherichia coli.

In brackets after ≈: the same amount, converted by molar mass.

For the molecule `CCCCCCCCCCCC(=O)OCC(O)CO` (centres unmarked) [Monolaurin, monolaurin], the “Minimal Inhibitory Concentration” value was 1953 micrograms per milliliter in assay [1]; 62.5 micrograms per milliliter in the assay on Pseudomonas Aeruginosa; 16 micrograms per milliliter in the assay with Staphylococcus Aureus (pH 5, at 24 hours); 64 micrograms per milliliter with Staphylococcus Aureus (pH 6, at 24 hours); 128 micrograms per milliliter with Staphylococcus Aureus (pH 7, at 24 hours); 500 micrograms per milliliter with Escherichia coli (pH 5, at 24 hours). Besides, the “Minimal Inhibitory Concentration” value is given as 2,000 micrograms per milliliter with Escherichia coli (pH 6, at 24 hours) and >4,000 micrograms per milliliter with Escherichia coli (pH 7, at 24 hours).

In the case of `C/C=C/C=C/C(=O)O` [Sorbic Acid, sorbic acid], the MIC (usually the lowest concentration that inhibits growth of the organism) is 156 µg/mL (≈ 1390 µM) in the assay on Staphylococcus Aureus (pH 5, at 24 hours); 312 µg/mL (≈ 2790 µM) with Staphylococcus Aureus (pH 6, at 24 hours); 1250 µg/mL (≈ 11100 µM) in the assay on Staphylococcus Aureus (pH 7, at 24 hours); 312 µg/mL (≈ 2790 µM) with Escherichia coli (pH 5, at 24 hours); 1250 µg/mL (≈ 11100 µM) in the assay with Escherichia coli (pH 6, at 24 hours); > 5000 µg/mL against Escherichia coli (pH 7, at 24 hours).
